In BindingDB's records for patent US10023557 (LIFESCI PHARMACEUTICALS, INC., 2018) one finds IC50 data, which are given here for one compound.

In this assay the target is Plasma kallikrein (Homo sapiens, UniProt P03952). Briefly: In Vitro Enzyme Inhibition of hPK. The note with it: pH 7.5. The method, then:
A 10 mM solution of the test compound was made in DMSO. […] A control tube containing only DMSO is included. […] 50 μL was removed from this mixture and placed into duplicate wells on a Microfluor 1Black U-bottom microtiter plate (Thermo Scientific). This plate was incubated for 5 minutes at 37° C. To each well, 50 μL of pre-warmed 2×PFR-AMC was added to start the enzymatic reaction. Cleavage of PFR-AMC was monitored in a Biotek Synergy H4 reader set at 37° C. Readings are taken every 43 seconds for 1 hour. […] The IC50 is calculated using the Gen5 (Biotek Instruments).

Chain of Plasma kallikrein (P03952 20-390 limits assumed): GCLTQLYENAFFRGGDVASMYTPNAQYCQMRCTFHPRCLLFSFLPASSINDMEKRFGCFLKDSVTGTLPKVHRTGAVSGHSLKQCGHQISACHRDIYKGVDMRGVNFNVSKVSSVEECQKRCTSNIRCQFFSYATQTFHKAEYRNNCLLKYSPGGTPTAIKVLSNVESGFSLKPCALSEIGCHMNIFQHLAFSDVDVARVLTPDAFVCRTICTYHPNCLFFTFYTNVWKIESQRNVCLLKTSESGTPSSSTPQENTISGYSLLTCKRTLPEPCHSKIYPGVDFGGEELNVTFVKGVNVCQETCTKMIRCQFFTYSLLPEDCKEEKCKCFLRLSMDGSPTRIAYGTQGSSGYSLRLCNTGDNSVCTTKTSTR
Chain of Plasma kallikrein (P03952 391-638 limits assumed): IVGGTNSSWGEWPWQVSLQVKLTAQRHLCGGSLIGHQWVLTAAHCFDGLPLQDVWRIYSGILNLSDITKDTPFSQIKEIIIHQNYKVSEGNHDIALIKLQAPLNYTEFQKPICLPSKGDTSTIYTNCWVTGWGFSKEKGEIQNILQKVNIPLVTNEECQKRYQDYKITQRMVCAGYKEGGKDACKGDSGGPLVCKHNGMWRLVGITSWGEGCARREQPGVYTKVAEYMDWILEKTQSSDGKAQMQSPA

One may read the IC50 as the midpoint of a concentration-inhibition curve. Turning to `Cc1nc(N)ccc1CNC(=O)c1ccnc(CC2=CC3C=C(Cl)C=NC3C=C2)c1` (stereo unspecified) [US10023557, Example 39], the IC50 is < 0.1 µM.
